Results taken from PubChem BioAssay (NCI).
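All cell lines were grown in 96-well plates and treated with compound for 48 hours. The concentration for full growth arrest is given as TGI.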

Columns and labels:
Test in all cases: growth of human tumour cells (NCI), 48 h
LXFL 529 NSCLC = system: LXFL 529 NSCLC
HOP-92 NSCLC = system: HOP-92 NSCLC
M19-MEL melanoma = system: M19-MEL melanoma
RPMI-8226 leukemia = system: RPMI-8226 leukemia
SNB-19 CNS = system: SNB-19 CNS
786-0 renal = system: 786-0 renal
DMS 114 small cell lung = system: DMS 114 small cell lung
SNB-78 CNS = system: SNB-78 CNS
SF-295 CNS = system: SF-295 CNS
HCT-15 colon = system: HCT-15 colon
UACC-62 melanoma = system: UACC-62 melanoma
NCI-H522 lung = system: NCI-H522 lung
OVCAR-8 ovarian = system: OVCAR-8 ovarian
TK-10 renal = system: TK-10 renal
ACHN renal = system: ACHN renal
SN12C renal = system: SN12C renal
HT29 colon = system: HT29 colon
MOLT-4 leukemia = system: MOLT-4 leukemia
HOP-62 NSCLC = system: HOP-62 NSCLC
K-562 leukemia = system: K-562 leukemia
EKVX NSCLC = system: EKVX NSCLC
CAKI-1 renal = system: CAKI-1 renal
SF-268 CNS = system: SF-268 CNS
OVCAR-5 ovarian = system: OVCAR-5 ovarian
DMS 273 small cell lung = system: DMS 273 small cell lung
DLD-1 colon = system: DLD-1 colon
NCI-H23 lung = system: NCI-H23 lung
UO-31 renal = system: UO-31 renal
KM20L2 colon = system: KM20L2 colon
OVCAR-3 ovarian = system: OVCAR-3 ovarian
COLO 205 colon = system: COLO 205 colon
NCI-H460 lung = system: NCI-H460 lung
KM12 colon = system: KM12 colon
UACC-257 melanoma = system: UACC-257 melanoma
A498 renal = system: A498 renal
NCI-H226 lung = system: NCI-H226 lung
LOX IMVI melanoma = system: LOX IMVI melanoma
U251 CNS = system: U251 CNS
HL-60(TB) leukemia = system: HL-60(TB) leukemia
MALME-3M melanoma = system: MALME-3M melanoma
M14 melanoma = system: M14 melanoma
SK-OV-3 ovarian = system: SK-OV-3 ovarian
SK-MEL-5 melanoma = system: SK-MEL-5 melanoma
IGROV1 ovarian = system: IGROV1 ovarian
OVCAR-4 ovarian = system: OVCAR-4 ovarian
CCRF-CEM leukemia = system: CCRF-CEM leukemia
HCC-2998 colon = system: HCC-2998 colon
A549 NSCLC = system: A549 NSCLC
SW-620 colon = system: SW-620 colon
SF-539 CNS = system: SF-539 CNS
SK-MEL-28 melanoma = system: SK-MEL-28 melanoma
SK-MEL-2 melanoma = system: SK-MEL-2 melanoma
HOP-18 NSCLC = system: HOP-18 NSCLC
RXF 393 renal = system: RXF 393 renal

SMILES: COC(=O)/C=C(C)/C=C/C1OC(C)OCC1O (configuration not stated)
- TGI (LXFL 529 NSCLC): > 100 µM
- TGI (HOP-92 NSCLC): > 100 µM
- TGI (M19-MEL melanoma): > 100 µM
- TGI (RPMI-8226 leukemia): > 100 µM
- TGI (SNB-19 CNS): > 100 µM
- TGI (786-0 renal): > 100 µM
- TGI (DMS 114 small cell lung): > 100 µM
- TGI (SNB-78 CNS): > 100 µM
- TGI (SF-295 CNS): > 100 µM
- TGI (HCT-15 colon): > 100 µM
- TGI (UACC-62 melanoma): > 100 µM
- TGI (NCI-H522 lung): > 100 µM
- TGI (OVCAR-8 ovarian): > 100 µM
- TGI (TK-10 renal): > 100 µM
- TGI (ACHN renal): > 100 µM
- TGI (SN12C renal): > 100 µM
- TGI (HT29 colon): > 100 µM
- TGI (MOLT-4 leukemia): > 100 µM
- TGI (HOP-62 NSCLC): > 100 µM
- TGI (K-562 leukemia): > 100 µM
- TGI (EKVX NSCLC): > 100 µM
- TGI (CAKI-1 renal): > 100 µM
- TGI (SF-268 CNS): > 100 µM
- TGI (OVCAR-5 ovarian): > 100 µM
- TGI (DMS 273 small cell lung): > 100 µM
- TGI (DLD-1 colon): > 100 µM
- TGI (NCI-H23 lung): > 100 µM
- TGI (UO-31 renal): > 100 µM
- TGI (KM20L2 colon): > 100 µM
- TGI (OVCAR-3 ovarian): > 100 µM
- TGI (COLO 205 colon): > 100 µM
- TGI (NCI-H460 lung): > 100 µM
- TGI (KM12 colon): > 100 µM
- TGI (UACC-257 melanoma): > 100 µM
- TGI (A498 renal): > 100 µM
- TGI (NCI-H226 lung): > 100 µM
- TGI (LOX IMVI melanoma): > 100 µM
- TGI (U251 CNS): > 100 µM
- TGI (HL-60(TB) leukemia): > 100 µM
- TGI (MALME-3M melanoma): > 100 µM
- TGI (M14 melanoma): > 100 µM
- TGI (SK-OV-3 ovarian): > 100 µM
- TGI (SK-MEL-5 melanoma): > 100 µM
- TGI (IGROV1 ovarian): > 100 µM
- TGI (OVCAR-4 ovarian): > 100 µM
- TGI (CCRF-CEM leukemia): > 100 µM
- TGI (HCC-2998 colon): > 100 µM
- TGI (A549 NSCLC): > 100 µM
- TGI (SW-620 colon): > 100 µM
- TGI (SF-539 CNS): > 100 µM

SMILES: N/N=C1\C(=O)N(C2CCCCCC2)C(=O)C1C(=O)NC1CCCCCC1 (configuration not stated)
- TGI (LXFL 529 NSCLC): 78.3 µM
- TGI (HOP-92 NSCLC): 41.6 µM
- TGI (M19-MEL melanoma): > 100 µM
- TGI (SNB-19 CNS): > 100 µM
- TGI (786-0 renal): > 100 µM
- TGI (SNB-78 CNS): 77.3 µM
- TGI (SF-295 CNS): > 100 µM
- TGI (HCT-15 colon): 82.7 µM
- TGI (UACC-62 melanoma): 41.6 µM
- TGI (NCI-H522 lung): 60 µM
- TGI (OVCAR-8 ovarian): > 100 µM
- TGI (TK-10 renal): > 10 µM
- TGI (ACHN renal): > 100 µM
- TGI (SN12C renal): 65.6 µM
- TGI (HT29 colon): > 100 µM
- TGI (MOLT-4 leukemia): 55.7 µM
- TGI (HOP-62 NSCLC): > 10 µM
- TGI (K-562 leukemia): > 100 µM
- TGI (EKVX NSCLC): > 100 µM
- TGI (SF-268 CNS): > 100 µM
- TGI (OVCAR-5 ovarian): > 100 µM
- TGI (DLD-1 colon): > 100 µM
- TGI (NCI-H23 lung): 52.1 µM
- TGI (UO-31 renal): 42 µM
- TGI (KM20L2 colon): 38.1 µM
- TGI (OVCAR-3 ovarian): > 100 µM
- TGI (COLO 205 colon): > 100 µM
- TGI (NCI-H460 lung): > 100 µM
- TGI (KM12 colon): > 100 µM
- TGI (UACC-257 melanoma): > 100 µM
- TGI (A498 renal): > 100 µM
- TGI (SK-MEL-28 melanoma): > 10 µM
- TGI (SK-MEL-2 melanoma): 37.6 µM
- TGI (U251 CNS): 31.7 µM
- TGI (HL-60(TB) leukemia): 45.1 µM
- TGI (MALME-3M melanoma): 45.3 µM
- TGI (HOP-18 NSCLC): 91.4 µM
- TGI (M14 melanoma): > 100 µM
- TGI (SK-MEL-5 melanoma): 43.6 µM
- TGI (IGROV1 ovarian): > 100 µM
- TGI (OVCAR-4 ovarian): > 100 µM
- TGI (RXF 393 renal): 69.8 µM
- TGI (CCRF-CEM leukemia): 80.8 µM
- TGI (HCC-2998 colon): 43.9 µM
- TGI (A549 NSCLC): > 100 µM
- TGI (SW-620 colon): > 100 µM
- TGI (SF-539 CNS): 56.1 µM
